Experiments:
[1] = system: joint non-classical monocytes, neutrophils and monocyte-derived macrophages; assay: Flow cytometry of leukocytes isolated from inflamed paws/joints; type: in vivo, mice; details: paws day 8, vs vehicle
Method: Front paws were collected on day 8 and digested to liberate infiltrating leukocytes. Leukocyte subsets were defined using antibodies against specific markers and flow cytometry. Trafficking and activation of (A) non-classical monocytes, (B) neutrophils, (C) monocyte-derived macrophages were assessed.
(§1) JCI Insight. 2016; 1(5):e85922.
Paws were harvested and leukocytes isolated as described in Dalli J et al. 2015 (ibid). Briefly, paws were incubated in RPMI-1640 (containing […] collagenase D and 40 µg/mL DNAse I) at 37° C. for 30 minutes with vigorous agitation. Isolated cells were passed through a […] strainer and suspended in RPMI-1640 containing […] and 10% FBS, then centrifugated at 400×g, 10 minutes. Isolated cells were suspended in DPBS−/− containing 0.02% BSA and 1% Fc-blocking IgG (v/v), and incubated with 0.1% Live/Dead stain for 20 minutes on ice. Cells were washed using DPBS−/− and incubated with fluorescent-labelled antibodies for 45 minutes on ice. These were then washed and fixed using 1% paraformaldehyde. Absolute counting beads were used for leukocyte enumeration. Staining was then evaluated using a flow cytometry analyser and analysed using suitable software.
First, the trafficking of non-classical monocytes to the inflamed joints was assessed, given their role in disease onset and propagation of K/B×N serum initiated inflammatory arthritis.

E. coli infections = details: atorvastatin and RvTs, additive actions; cited from earlier work
Male C57BL/6 mice = assay: K/BxN serum inflammatory arthritis: 26-point clinical score, paw swelling, knee H&E histology; type: in vivo; details: 0.2 mg/Kg days 3, 5, 7
Method: Male C57BL/6 mice (11 weeks old) were procured from Charles River (Kent, UK). All animals were provided with standard laboratory diet and water ad libitum and kept on a 12 h light/dark cycle.
as §1
(§2) Blood and paws were collected either on day 8 after arthritis onset or 2 h after statin injection on day 7.
Arthritis was initiated and mice were treated and disease progression monitored as described above.

[2] = system: 13-series resolvins (RvT); assay: Lipid mediator profiling (LC-MS/MS) of paws in K/BxN serum inflammatory arthritis; type: in vivo, mice; details: for increase in overall RvT amounts in joints/paws compared with vehicle: paws collected day 8, 24 h after last dose
Method: as §1, §2
Ice-cold methanol containing 500 pg of each deuterated (d) internal standard: d8-SSHydroxyeicosatetraenoic, d4-Leukotriene (LT) B4, d5-Lipoxin (LX) A4, d-Prostaglandin (PG) E2 and d5-Resolvin D2, was added to samples. […] J Clin Invest. 2017; 127(1):169-182.
Using multiple reaction monitoring the concentrations of mediators identified in these paws were quantified.

[3] = system: 13-series resolvins (RvT) and eicosanoids; details: blood 2 h after last statin dose on day 7
[4] = system: circulating monocytes, neutrophils and platelets; assay: Flow cytometry of circulating leukocytes and platelets in inflammatory arthritis; type: in vivo, mice; details: 0.2 mg/Kg days 3, 5, 7; blood day 8, vs vehicle
[5] = clearance from the circulation; cited from earlier work
[6] = celecoxib 10 mg/Kg 1 h prior to pravastatin or atorvastatin, paws day 8

Q: Which results are given for `CC(C)c1c(C(=O)Nc2ccccc2)c(-c2ccccc2)c(-c2ccc(F)cc2)n1CC[C@@H](O)C[C@@H](O)CC(=O)O` [atorvastatin]?
A: reduction in total numbers of non-classical monocytes recruited to the joints ([1]; 0.2 mg/Kg days 3, 5, 7): > 60%; CD11b expression on joint non-classical monocytes ([1]; 0.2 mg/Kg): reduction; MHCII expression on joint non-classical monocytes ([1]; 0.2 mg/Kg): significant reduction; joint neutrophil CD11b and MHCII expression ([1]; 0.2 mg/Kg): did not reach statistical significance; neutrophil trafficking to the joint ([1]; 0.2 mg/Kg): decreased; number of monocyte-derived macrophages in joints and their CD11b and MHCII expression ([1]; 0.2 mg/Kg): significant reduction; increased survival (E. coli infections): > 60%; joint swelling (midfoot pad thickness) (Male C57BL/6 mice): reduced joint swelling; H&E knee joint sections: leukocyte infiltration, pannus formation and joint damage (Male C57BL/6 mice; day 8, vs vehicle): reduced leukocyte infiltration, pannus formation and joint damage; maximum disease score (26-point clinical score) (Male C57BL/6 mice; maximum at day 5): 9.1±1.2; increase in overall RvT amounts in joints/paws compared with vehicle ([2]; 0.2 mg/Kg i.v. days 3, 5, 7): 43%; individual RvT increased in paws compared with vehicle ([2]; 0.2 mg/Kg i.v. days 3, 5, 7, paws day 8): increased RvT1, RvT2, RvT3 and RvT4; decrease in circulating PGD2 [3]: decreased; decrease in circulating PGE2 [3]: decreased; neutrophil CD11b expression (circulating) [4]: significantly reducing; reduction in CD11b expression on circulating classical monocytes [4]: regulated; reduction in CD11b expression on circulating non-classical monocytes [4]: regulated; reduction in platelet CD62P expression [4]: ~60%; reduction in platelet-monocyte aggregates (both monocyte subsets) [4]: regulated; reduction in platelet-neutrophil aggregates [4]: significantly reducing

Q: With `Cc1ccc(-c2cc(C(F)(F)F)nn2-c2ccc(S(N)(=O)=O)cc2)cc1` [celecoxib] as the molecule, how does the “reduction in joint RvT1 concentration compared to statin alone” value [2, 6] read?
A: > 75%

Q: And the “reduction in joint RvT compared to statin alone” value [2, 6]?
A: ~60%

Q: Which “reduction in disease activity compared with vehicle” value (Male C57BL/6 mice; day 5 through day 7) does the source give for `CC[C@H](C)C(=O)O[C@H]1C[C@H](O)C=C2C=C[C@H](C)[C@H](CC[C@@H](O)C[C@@H](O)CC(=O)O)[C@H]21` [pravastatin] here?
A: ~23%

Q: What about the “increase in overall RvT amounts in joints/paws compared with vehicle” value ([2]; 0.2 mg/Kg i.v. days 3, 5, 7) of the same molecule?
A: ~20%

Q: And the “decrease in circulating PGD2” value [3]?
A: ~46%

Q: And the “decrease in circulating PGE2” value [3]?
A: ~29%

Q: What about the “increase in plasma/peripheral blood RvT compared with vehicle” value [3] of the same molecule?
A: > 100%

Q: And the half-life [5]?
A: ~3 h

Q: And the “reduction in CD11b expression on circulating classical monocytes” value [4]?
A: ~40%

Q: And the “reduction in CD11b expression on circulating non-classical monocytes” value [4]?
A: ~10%

Q: What about the “reduction in platelet CD62P expression” value [4] of the same molecule?
A: ~70%

Q: What about the “reduction in platelet-monocyte aggregates (both monocyte subsets)” value [4] of the same molecule?
A: ~35%

Q: What about the “reduction in platelet-neutrophil aggregates” value [4] of the same molecule?
A: ~25%

Reference: patent US11531036B2, “Method and apparatus for determining the efficacy of statins for treating inflammatory diseases in individual patients” (Queen Mary University of London, priority 2017, dated 2022)
